In publication PMC8956739, “A synthetic lipopeptide targeting top-priority multidrug-resistant Gram-negative pathogens” (Nature Communications, 2022):
In brackets after ≈: the same amount, converted by molar mass. Read-outs that look alike come from different tables or passages of the source. Residues, ends and D or L forms follow the SMILES beside them.

Assays:
[1] = tested on: P. aeruginosa FADDI-PA025; assay type: cell-based, Pseudomonas aeruginosa
Procedure, shortened: (§1)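 Each strain is tested in cation-adjusted Mueller–Hinton broth using the micro-dilution technique, and growth inhibition gives the MIC.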

P. aeruginosa ATCC 27853 = assay type: cell-based, Pseudomonas aeruginosa; settings: for MIC, 10% Survanta: P. aeruginosa ATCC 27853, 10% Survanta
Procedure, shortened: as §1

[2] = tested on: P. aeruginosa FADDI-PA038; assay type: cell-based, Pseudomonas aeruginosa; settings: carbapenem-resistant isolate
Procedure, shortened: as §1

[3] = tested on: MDR clinical isolates of P. aeruginosa (n = 213, 55 carbapenem-resistant); assay type: cell-based, Pseudomonas aeruginosa
Procedure, shortened: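 Cation-adjusted Mueller–Hinton broth was used with the broth microdilution method to set MICs against clinical isolates. A separate run on P. aeruginosa ATCC 27853 added 10% Survanta® (v/v, 2.5 mg/mL phospholipids) to gauge lung-surfactant binding of polymyxins.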

[4] = tested on: K. pneumoniae FADDI-KP065; assay type: cell-based, Klebsiella pneumoniae; settings: carbapenem-resistant isolate
Procedure, shortened: as §1

[5] = tested on: K. pneumoniae FADDI-KP032; assay type: cell-based, Klebsiella pneumoniae; settings: carbapenem-resistant isolate
Procedure, shortened: as §1

[6] = tested on: KCNJ16 knockout HK-2 cells; experiment: Cell viability after 24 h treatment; assay type: cell-based, human; settings: for Cell viability, KCNJ16 KO, Rep2: replicate 2; for Cell viability, KCNJ16 KO, Rep3: replicate 3; for Cell viability, KCNJ16 KO, Rep4: replicate 4
Experimental: (§2) Fig. 6 Transcriptomic changes in human kidney proximal tubular HK-2 cells following treatments with polymyxin B (PMB), colistin (COL), F287, F319, and F365. a Numbers of differentially expressed genes. Distinctive intersections are color-coded. b Cell viability difference (two-tailed Student’s t-test, n = 4 biologically independent cells, Benjamini–Hochberg adjusted P-values) between wild-type HK-2 and KCNJ16 knockout (KO) cells following 24 h treatment with lipopeptides. n.s., not significant; ^*adjusted P < 0.05, ^**adjusted P < 0.01, ^***adjusted P < 0.001. Data are shown as mean ± s.d. and individual data points. c Extracted transcriptional regulatory network from Signor database with 1-step neighbor constraints (enlarged for detail). Source data are provided as a Source Data file.

[7] = Cell viability after 24 h treatment; assay type: cell-based, human; settings: human, KCNJ16 knockout HK-2 cells (kidney proximal tubular), Cell viability, KCNJ16 KO, KCNJ16 knockout HK-2 cells, 24 h, Fig. 6b
Experimental: as §2

wild-type HK-2 cells = experiment: in vitro; assay type: cell-based, human; settings: for Cell viability, WT, Rep1 / Cell viability, WT, Rep2 / Cell viability, WT, Rep4: human, wild-type HK-2 cells (kidney proximal tubular), 24 h
Experimental: as §2

in vitro = assay type: cell-based, human; settings: human, wild-type HK-2 cells (kidney proximal tubular), Cell viability, WT
Experimental: as §2

[8] = MDR clinical isolates of (n = 213, 55 carbapenem-resistant)
[9] = isolates with MIC 0.05 μg/mL (so in the source)
[10] = isolates with MIC 0.125 μg/mL (so in the source)
[11] = isolates with MIC 0.25 μg/mL (so in the source)
[12] = isolates with MIC 0.5 μg/mL (so in the source)
[13] = isolates with MIC 1 μg/mL (so in the source)
[14] = isolates with MIC 2 μg/mL (so in the source)
[15] = isolates with MIC 4 μg/mL (so in the source)
[16] = isolates with MIC 8 μg/mL (so in the source)
[17] = isolates with MIC 16 μg/mL (so in the source)
[18] = isolates with MIC 32 μg/mL (so in the source)
[19] = isolates with MIC 64 μg/mL (so in the source)
[20] = isolates with MIC >64 μg/mL (so in the source)
[21] = P. aeruginosa ATCC 27853, no surfactant
[22] = KCNJ16 knockout HK-2 cells, 24 h, Fig. 6b

Compound	MIC P. aeruginosa FADDI-PA038 [2] [µg/mL]	Number of isolates [3, 9]	Number of isolates [3, 10]	Number of isolates [3, 11]	Number of isolates [3, 12]	Number of isolates [3, 13]	Number of isolates [3, 14]	Number of isolates [3, 15]	Number of isolates [3, 16]	Number of isolates [3, 17]	Number of isolates [3, 18]	Number of isolates [3, 19]	Number of isolates [3, 20]	MIC K. pneumoniae FADDI-KP065 [4] [µg/mL]	MIC K. pneumoniae FADDI-KP032 [5] [µg/mL]	MIC P. aeruginosa FADDI-PA025 ([1]; MDR clinical isolate) [µg/mL]	MIC P. aeruginosa ATCC 27853 (P. aeruginosa ATCC 27853) [µg/mL]	increase of MIC in the presence of lung surfactant (P. aeruginosa ATCC 27853; 10% Survanta vs none) [fold]	MIC, 10% Survanta (P. aeruginosa ATCC 27853) [µg/mL]	MIC, No Survanta (P. aeruginosa ATCC 27853; [21]) [µg/mL]	other results
CC[C@@H]1NC(=O)[C@@H](CC(C)C)NC(=O)[C@H](CCN)NC(=O)[C@@H](NC(=O)[C@H](CN)NC(=O)[C@@H](NC(=O)[C@H](CCN)NC(=O)c2ccc(Cl)cc2Cl)[C@@H](C)O)CCNC(=O)[C@H]([C@@H](C)O)NC(=O)[C@H](CCN)NC(=O)[C@H](CCN)NC1=O [Lipopeptide F365] (HELM PEPTIDE1{[O=C(c1ccc(Cl)cc1Cl)[*:2]].[Dab].T.[NC[C@H](N[*:1])C(=O)[*:2]].[Dab].[Dab].[dL].[Abu].[Dab].[Dab].T}$PEPTIDE1,PEPTIDE1,5:R3-11:R2$$$V2.0)	0.5 (≈ 0.431 µM)	1	6	28	159	13	1	2	0	1	0	0	2	<0.125	<0.125	–	–	–	–	–	MIC P. aeruginosa FADDI-PA025 ([1]; FADDI-PA025): 0.5 µg/mL (≈ 0.431 µM); impact of lung surfactant on MIC (P. aeruginosa ATCC 27853; 10% Survanta vs none): not impacted; MIC P. aeruginosa ATCC 27853 (P. aeruginosa ATCC 27853; ATCC 27853): 0.5 µg/mL (≈ 0.431 µM); MIC, No Survanta (P. aeruginosa ATCC 27853; ATCC 27853): 0.5 µg/mL (≈ 0.431 µM); MIC50 [3, 8]: 0.5 µg/mL (≈ 0.431 µM); MIC90 [3, 8]: 1 µg/mL (≈ 0.862 µM); potency relative to polymyxin B ([3]; MIC50/MIC90, P. aeruginosa panel): 2 fold; effect on cell viability ([6]; 24 h treatment): no effect on cell viability; viability at 24 h ([7]; Rep1, replicate 1, read-out: Cell viability, KCNJ16 KO, Rep1): 76%; viability at 24 h ([7]; Rep2, replicate 2, read-out: Cell viability, KCNJ16 KO, Rep2): 94.1%; viability at 24 h ([7]; Rep3, replicate 3, read-out: Cell viability, KCNJ16 KO, Rep3): 100%; viability at 24 h ([7]; Rep4, replicate 4, read-out: Cell viability, KCNJ16 KO, Rep4): 73.7%; effect on cell viability (wild-type HK-2 cells): no effect on cell viability; viability at 24 h (in vitro; Rep1): 96.4%; viability at 24 h (in vitro; Rep2): 95.4%; viability at 24 h (in vitro; Rep4): 95.1%
Colistin [reference compound]	1	–	–	–	–	–	–	–	–	–	–	–	–	0.25	1	2	0.5	8	8	1	Cell viability, KCNJ16 KO, Rep2 [6, 22]: 81.0179; Cell viability, KCNJ16 KO, Rep3 [6, 22]: 91.8189; Cell viability, KCNJ16 KO, Rep4 [6, 22]: 66.4023; Cell viability, WT, Rep1 (wild-type HK-2 cells): 52.6875; Cell viability, WT, Rep2 (wild-type HK-2 cells): 59.5382; Cell viability, WT, Rep4 (wild-type HK-2 cells): 47.0908
Polymyxin B [reference compound]	0.5	0	0	1	9	99	95	7	0	2	0	0	0	0.25	0.5	2	0.5	8	8	1	loss of antibacterial activity due to binding to lung surfactant (P. aeruginosa ATCC 27853; 10% Survanta): 87.5%; MIC P. aeruginosa FADDI-PA038 ([2]; listed as PMB): 1 µg/mL; MIC50 ([3]; P. aeruginosa n = 213): 1 µg/mL; MIC90 ([3]; P. aeruginosa n = 213): 2 µg/mL; Cell viability, KCNJ16 KO, Rep1 ([6]; KCNJ16 knockout HK-2 cells, 24 h, replicate 1, Fig. 6b): 61.7446; Cell viability, KCNJ16 KO, Rep2 [6, 22]: 73.0677; Cell viability, KCNJ16 KO, Rep3 [6, 22]: 75.1154; Cell viability, KCNJ16 KO, Rep4 [6, 22]: 76.9625; Cell viability, WT, Rep1 (wild-type HK-2 cells): 28.7713; Cell viability, WT, Rep2 (wild-type HK-2 cells): 35.2856; Cell viability, WT, Rep4 (wild-type HK-2 cells): 31.0651
